Results reported in patent US8440708B2, “Triazole-substituted arylamides as P2X3 and P2X2/3 antagonists” (Roche Palo Alto LLC, priority 2007, dated 2013).

Tests used:
[1] = target: T1, rat P2X3 receptor (Rattus norvegicus, UniProt P49654); experiment: P2X3/P2X2/3 FLIPR (Fluorometric Imaging Plate Reader) Assay, P2X3; type: cell-based; details: CHO-K1 cells transfected with rat P2X3; agonist α,β-meATP 1 μM; Table 1; read-out: P2X3 pKi (converted)
T1 construct: expressed in transfected cells; host or cells: CHO-K1
T1 sequence (P49654 1-397): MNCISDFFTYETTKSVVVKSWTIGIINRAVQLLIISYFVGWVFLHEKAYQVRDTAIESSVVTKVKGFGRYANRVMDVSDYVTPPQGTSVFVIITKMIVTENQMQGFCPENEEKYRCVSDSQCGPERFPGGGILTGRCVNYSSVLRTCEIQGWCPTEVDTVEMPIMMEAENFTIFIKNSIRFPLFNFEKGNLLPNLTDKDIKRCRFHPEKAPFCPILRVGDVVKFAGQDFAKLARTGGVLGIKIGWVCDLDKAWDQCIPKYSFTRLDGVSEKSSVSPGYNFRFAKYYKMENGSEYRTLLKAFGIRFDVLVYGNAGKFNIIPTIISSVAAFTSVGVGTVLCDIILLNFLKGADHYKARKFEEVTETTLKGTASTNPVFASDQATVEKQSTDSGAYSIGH
Summary of the method: (§1)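 Compounds were tested as antagonists of agonist-evoked calcium entry in CHO-K1 cells transfected with rat P2X3 or human P2X2/3. After 20 min with compound at room temperature, cells received α,β-meATP at 1 μM (P2X3) or 5 μM (P2X2/3), and peak fluorescence was recorded over 2 min.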

[2] = target: T2, human P2X2/3 receptor (Homo sapiens, UniProt P56373+Q9UBL9); experiment: P2X3/P2X2/3 FLIPR (Fluorometric Imaging Plate Reader) Assay, P2X2/3; type: cell-based; details: CHO-K1 cells transfected with human P2X2/3; agonist α,β-meATP 5 μM; Table 1; read-out: P2X2/3 pKi (converted)
T2 construct: expressed in transfected cells; host or cells: CHO-K1
T2 sequence (Q9UBL9 1-471): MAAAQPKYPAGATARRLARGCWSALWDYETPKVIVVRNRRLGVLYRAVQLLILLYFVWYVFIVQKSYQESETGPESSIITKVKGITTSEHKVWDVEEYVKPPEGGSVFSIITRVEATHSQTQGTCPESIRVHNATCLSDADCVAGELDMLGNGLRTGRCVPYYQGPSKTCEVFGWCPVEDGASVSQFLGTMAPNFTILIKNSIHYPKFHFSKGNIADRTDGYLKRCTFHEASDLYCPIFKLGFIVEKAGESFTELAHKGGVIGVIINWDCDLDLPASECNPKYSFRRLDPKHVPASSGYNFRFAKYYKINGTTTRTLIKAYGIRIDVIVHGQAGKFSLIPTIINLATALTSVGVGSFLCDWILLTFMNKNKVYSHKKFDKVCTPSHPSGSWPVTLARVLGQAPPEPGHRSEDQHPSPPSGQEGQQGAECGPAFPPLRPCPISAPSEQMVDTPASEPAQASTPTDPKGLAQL
T2 sequence (P56373 1-397): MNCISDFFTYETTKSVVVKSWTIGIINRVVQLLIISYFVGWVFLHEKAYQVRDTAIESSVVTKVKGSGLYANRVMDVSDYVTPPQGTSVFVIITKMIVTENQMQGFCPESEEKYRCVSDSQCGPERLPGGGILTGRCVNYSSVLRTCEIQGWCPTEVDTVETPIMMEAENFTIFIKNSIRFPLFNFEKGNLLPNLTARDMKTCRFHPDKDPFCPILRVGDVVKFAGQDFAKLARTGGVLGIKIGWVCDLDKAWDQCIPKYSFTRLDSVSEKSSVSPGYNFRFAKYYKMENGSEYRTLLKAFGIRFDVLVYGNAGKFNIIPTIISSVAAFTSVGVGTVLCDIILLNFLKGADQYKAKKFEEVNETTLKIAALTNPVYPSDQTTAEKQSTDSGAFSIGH
Summary of the method: as §1

| SMILES | Ki [1] [nM] | Ki [2] [nM] |
| --- | --- | --- |
| Cc1ccc(-c2cc(-n3ncnc3C(F)(F)F)cc(C(=O)N[C@@H](C)CO)c2F)nc1 [Compound 167, 2-Fluoro-N-((S)-2-hydroxy-1-methyl-ethyl)-3-(5-methyl-pyridin-2-yl)-5-(5-trifluoromethyl-[1,2,4]triazol-1-yl)-benzamide] | 2.51 | 12 |
| Cc1ccc(-c2cc(-n3ncnc3C(F)(F)F)cc(C(=O)NC(C)c3cnccn3)c2F)nc1 (stereo not shown) [Compound 168, 2-Fluoro-3-(5-methyl-pyridin-2-yl)-N-(1-pyrazin-2-yl-ethyl)-5-(5-trifluoromethyl-[1,2,4]triazol-1-yl)-benzamide] | 13.5 | 2690 |
| Cc1ccc(-c2cc(-n3ncnc3C(F)(F)F)cc(C(=O)NCc3cnc(C)cn3)c2F)nc1 [Compound 169, 2-Fluoro-N-(5-methyl-pyrazin-2-ylmethyl)-3-(5-methyl-pyridin-2-yl)-5-(5-trifluoromethyl-[1,2,4]triazol-1-yl)-benzamide] | 4.27 | 95.5 |
| Cc1ccc(-c2cc(C(=O)NCc3ncc(C)cn3)cc(-n3ncnc3C(F)(F)F)c2)nc1 [Compound 171, 3-(5-Methyl-pyridin-2-yl)-N-(5-methyl-pyrimidin-2-ylmethyl)-5-(5-trifluoromethyl-[1,2,4]triazol-1-yl)-benzamide] | 16.6 | 209 |
| Cc1ccc(-c2cc(-n3ncnc3C(C)C)cc(C(=O)NC(C)c3cnccn3)c2F)nc1 (stereo not shown) [Compound 173, 2-Fluoro-5-(5-isopropyl-[1,2,4]triazol-1-yl)-3-(5-methyl-pyridin-2-yl)-N-(1-pyrazin-2-yl-ethyl)-benzamide] | 3.98 | 85.1 |
| Cc1ccc(-c2cc(-n3ncnc3C(C)C)cc(C(=O)N[C@@H](C)CO)c2F)nc1 [Compound 174, 2-Fluoro-N-((S)-2-hydroxy-1-methyl-ethyl)-5-(5-isopropyl-[1,2,4]triazol-1-yl)-3-(5-methyl-pyridin-2-yl)-benzamide] | 6.46 | 1620 |
| Cc1ccc(-c2cc(-n3ncnc3C(F)(F)F)cc(C(=O)NCc3ccc(C)nn3)c2F)nc1 [Compound 176, 2-Fluoro-N-(6-methyl-pyridazin-3-ylmethyl)-3-(5-methyl-pyridin-2-yl)-5-(5-trifluoromethyl-[1,2,4]triazol-1-yl)-benzamide] | 3.72 | 32.4 |
| Cc1ccc(-c2cc(-n3ncnc3C(F)(F)F)cc(C(=O)NCc3ncc(C)cn3)c2F)nc1 [Compound 177, 2-Fluoro-3-(5-methyl-pyridin-2-yl)-N-(5-methyl-pyrimidin-2-ylmethyl)-5-(5-trifluoromethyl-[1,2,4]triazol-1-yl)-benzamide] | 24 | 151 |
| Cc1ccc(-c2cc(-n3ncnc3C(F)(F)F)cc(C(=O)NCc3cnc(C)nc3)c2F)nc1 [Compound 178, 2-Fluoro-3-(5-methyl-pyridin-2-yl)-N-(2-methyl-pyrimidin-5-ylmethyl)-5-(5-trifluoromethyl-[1,2,4]triazol-1-yl)-benzamide] | 3.63 | 51.3 |
| Cc1ccc(-c2cc(C(=O)N[C@H](C)CN3CCOCC3)cc(-n3ncnc3C(F)(F)F)c2)nc1 [Compound 179, N-((R)-1-Methyl-2-morpholin-4-yl-ethyl)-3-(5-methyl-pyridin-2-yl)-5-(5-trifluoromethyl-[1,2,4]triazol-1-yl)-benzamide] | 24.5 | 339 |
| Cc1ccc(-c2cc(C(=O)N[C@@H](C)c3cnccn3)cc(-n3ncnc3C(F)(F)F)c2)nc1 [Compound 180, 3-(5-Methyl-pyridin-2-yl)-N-((S)-1-pyrazin-2-yl-ethyl)-5-(5-trifluoromethyl-[1,2,4]triazol-1-yl)-benzamide] | 6.61 | 46.8 |
